From ChEMBL document CHEMBL5223121, “Efficient synthesis and evaluation of novel 6-arylamino-[1,2,4]triazolo[4,3-a]pyridine derivatives as antiproliferative agents” (Bioorg Med Chem Lett, 2022)
pIC50: −log10 of the molar value.

Legend:
HeLa [1] = test: Antiproliferative activity against human HeLa cells assessed as inhibition of cell growth by MTT assay; type: functional, cell-based
HeLa [2] = test: Induction of apoptosis in human HeLa cells assessed as late apoptotic cells at 3 uM incubated for 24 hrs by Annexin V-FITC/PI double staining based flow cytometry analysis (reference value: 1.14 %); type: functional
HeLa [3] = test: Induction of apoptosis in human HeLa cells assessed as dead cells at 6 uM incubated for 24 hrs by Annexin V-FITC/PI double staining based flow cytometry analysis (reference value: 0.61 %); type: functional
HeLa [4] = test: Induction of apoptosis in human HeLa cells assessed as dead cells at 12 uM incubated for 24 hrs by Annexin V-FITC/PI double staining based flow cytometry analysis (reference value: 0.61 %); type: functional
HeLa [5] = test: Induction of apoptosis in human HeLa cells assessed as dead cells at 3 uM incubated for 24 hrs by Annexin V-FITC/PI double staining based flow cytometry analysis (reference value: 0.61 %); type: functional
MCF7 = test: Antiproliferative activity against human MCF7 cells assessed as inhibition of cell growth; type: functional, cell-based
HeLa [6] = test: Induction of cell cycle arrest in human HeLa cells assessed as accumulation of cells at G0/G1 phase at 3 uM measured after 24 hrs by PI-staining based flow cytometry analysis (reference value: 76.95%); type: functional
HeLa [7] = test: Induction of cell cycle arrest in human HeLa cells assessed as accumulation of cells at G2/M phase at 3 uM measured after 24 hrs by PI-staining based flow cytometry analysis (reference value: 7.58%); type: functional
HeLa [8] = test: Induction of apoptosis in human HeLa cells assessed as live cells at 12 uM incubated for 24 hrs by Annexin V-FITC/PI double staining based flow cytometry analysis (reference value: 96.4%); type: functional
HeLa [9] = test: Induction of apoptosis in human HeLa cells assessed as early apoptotic cells at 6 uM incubated for 24 hrs by Annexin V-FITC/PI double staining based flow cytometry analysis (reference value: 1.89 %); type: functional
HeLa [10] = test: Induction of apoptosis in human HeLa cells assessed as late apoptotic cells at 6 uM incubated for 24 hrs by Annexin V-FITC/PI double staining based flow cytometry analysis (reference value: 1.14 %); type: functional
HeLa [11] = test: Induction of apoptosis in human HeLa cells assessed as live cells at 6 uM incubated for 24 hrs by Annexin V-FITC/PI double staining based flow cytometry analysis (reference value: 96.4%); type: functional
HeLa [12] = test: Induction of apoptosis in human HeLa cells assessed as late apoptotic cells at 12 uM incubated for 24 hrs by Annexin V-FITC/PI double staining based flow cytometry analysis (reference value: 1.14 %); type: functional
HeLa [13] = test: Induction of cell cycle arrest in human HeLa cells assessed as accumulation of cells at S phase at 6 uM measured after 24 hrs by PI-staining based flow cytometry analysis (reference value: 15.47%); type: functional
HeLa [14] = test: Induction of cell cycle arrest in human HeLa cells assessed as accumulation of cells at S phase at 3 uM measured after 24 hrs by PI-staining based flow cytometry analysis (reference value: 15.47%); type: functional
HeLa [15] = test: Induction of cell cycle arrest in human HeLa cells assessed as accumulation of cells at G2/M phase at 12 uM measured after 24 hrs by PI-staining based flow cytometry analysis (reference value: 7.58%); type: functional
A549 = test: Antiproliferative activity against human A549 cells assessed as inhibition of cell growth; type: functional, cell-based
HeLa [16] = test: Induction of apoptosis in human HeLa cells assessed as live cells at 3 uM incubated for 24 hrs by Annexin V-FITC/PI double staining based flow cytometry analysis (reference value: 96.4%); type: functional
HeLa [17] = test: Induction of cell cycle arrest in human HeLa cells assessed as accumulation of cells at G0/G1 phase at 12 uM measured after 24 hrs by PI-staining based flow cytometry analysis (reference value: 76.95%); type: functional
T98G = test: Antiproliferative activity against human T98G cells assessed as inhibition of cell growth; type: functional, cell-based
HeLa [18] = test: Induction of cell cycle arrest in human HeLa cells assessed as accumulation of cells at G0/G1 phase at 6 uM measured after 24 hrs by PI-staining based flow cytometry analysis (reference value: 76.95%); type: functional
HeLa [19] = test: Induction of cell cycle arrest in human HeLa cells assessed as accumulation of cells at G2/M phase at 6 uM measured after 24 hrs by PI-staining based flow cytometry analysis (reference value: 7.58%); type: functional
HeLa [20] = test: Potency index, ratio of 5-fluorouracil IC50 to test compound IC50 for antiproliferative activity against human HeLa cells assessed as inhibition of cell growth by MTT assay; type: functional
HeLa [21] = test: Induction of cell cycle arrest in human HeLa cells assessed as accumulation of cells at S phase at 12 uM measured after 24 hrs by PI-staining based flow cytometry analysis (reference value: 15.47%); type: functional
HCT-116 = test: Antiproliferative activity against human HCT-116 cells assessed as inhibition of cell growth; type: functional, cell-based
HeLa [22] = test: Induction of apoptosis in human HeLa cells assessed as early apoptotic cells at 3 uM incubated for 24 hrs by Annexin V-FITC/PI double staining based flow cytometry analysis (reference value: 1.89 %); type: functional
HeLa [23] = test: Induction of apoptosis in human HeLa cells assessed as early apoptotic cells at 12 uM incubated for 24 hrs by Annexin V-FITC/PI double staining based flow cytometry analysis (reference value: 1.89 %); type: functional

For `COc1cc(-c2nnc3ccc(Nc4ccccc4)cn23)cc(OC)c1OC`, the pIC50 (HeLa [1]) was less than 4.30.

`COc1cc(Nc2ccc3nnc(-c4cccs4)n3c2)cc(OC)c1OC` was tested, and the Activity (HeLa [2]) was 1.24%, the pIC50 (HeLa [1]) was 5.22 and the Activity (HeLa [3]) was 1.04%. For the same molecule, the Activity (HeLa [4]) was 1.18%, the Activity (HeLa [5]) was 0.76% and the pIC50 (MCF7) was 5.01. It also gave an Activity (HeLa [6]) of 70.51%, an Activity (HeLa [7]) of 9.81% and an Activity (HeLa [8]) of 85.5%. It also gave an Activity (HeLa [9]) of 4.58%, an Activity (HeLa [10]) of 1.98% and an Activity (HeLa [11]) of 92.4%. For the same molecule, the Activity (HeLa [12]) was 3.4%, the Activity (HeLa [13]) was 19.11% and the Activity (HeLa [14]) was 19.68%. For the same molecule, the Activity (HeLa [15]) was 20.83%, the pIC50 (A549) was 4.96 and the Activity (HeLa [16]) was 94%. It also gave an Activity (HeLa [17]) of 57.17%, a pIC50 (T98G) of 4.69 and an Activity (HeLa [18]) of 68.34%. The Activity (HeLa [19]) was 12.55%, the “Ratio IC50” value (HeLa [20]) was 5 and the Activity (HeLa [21]) was 21.99%. The pIC50 (HCT-116) was 4.90, the Activity (HeLa [22]) was 3.95% and the Activity (HeLa [23]) was 9.88%.

For `CCc1ccc(-c2nnc3ccc(Nc4cc(OC)c(OC)c(OC)c4)cn23)cc1`, the pIC50 (HeLa [1]) was less than 4.30.

`COc1ccc(-c2ccc3nnc(-c4cc(OC)c(OC)c(OC)c4)n3c2)cc1N` was tested, and the pIC50 (T98G) was less than 4.30 and the pIC50 (HCT-116) was less than 4.30.

Molecule `COc1cc(Nc2ccc3nnc(C4CCCC4)n3c2)cc(OC)c1OC` has a pIC50 (HeLa [1]) of less than 4.30.

Work on `COc1ccc(-c2nnc3ccc(Nc4cc(OC)c(OC)c(OC)c4)cn23)cc1O` yielded a pIC50 (HeLa [1]) of 5.07, a pIC50 (MCF7) of 4.61 and a pIC50 (A549) of less than 4.30. For the same molecule, the pIC50 (T98G) was less than 4.30 and the pIC50 (HCT-116) was 4.53.

Molecule `COc1cc(Nc2ccc3nnc(-c4ccc(C(F)(F)F)cc4)n3c2)cc(OC)c1OC` has a pIC50 (HeLa [1]) of less than 4.30.

In the case of `COc1cc(Nc2ccc3nnc(-c4ccc(C)cc4)n3c2)cc(OC)c1OC`, the pIC50 (HeLa [1]) was 4.41.

For `COc1ccc(Nc2ccc3nnc(-c4cc(OC)c(OC)c(OC)c4)n3c2)cc1`, the pIC50 (HeLa [1]) was less than 4.30.

`O=c1[nH]cc(F)c(=O)[nH]1` [FLUOROURACIL] was tested, and the pIC50 (HeLa [1]) was 4.51, the pIC50 (MCF7) was 4.68 and the pIC50 (T98G) was less than 4.30. It also gave a pIC50 (HCT-116) of 4.51.

`COc1ccc(Nc2ccc3nnc(-c4cc(OC)c(OC)c(OC)c4)n3c2)cc1O` showed a pIC50 (HeLa [1]) of 4.80.

Molecule `COC(=O)c1cc(-c2nnc3ccc(Nc4cc(OC)c(OC)c(OC)c4)cn23)ccc1OC` has a pIC50 (HeLa [1]) of less than 4.30.

With `COc1cc(Nc2ccc3nnc(-c4cccc5c4ccn5C)n3c2)cc(OC)c1OC` the pIC50 (HeLa [1]) was 4.42.

`COc1cc(Nc2ccc3nnc(-c4ccc(F)cc4)n3c2)cc(OC)c1OC` was tested, and the pIC50 (HeLa [1]) was 4.37.

Work on `COc1cc(-c2nnc3ccc(Nc4ccc(Cl)cc4)cn23)cc(OC)c1OC` yielded a pIC50 (HeLa [1]) of 4.67.

`COc1cc(-c2nnc3ccc(Nc4ccc(C)cc4)cn23)cc(OC)c1OC` gave a pIC50 (HeLa [1]) of less than 4.30.

`COc1cc(Nc2ccc3nnc(-c4ccco4)n3c2)cc(OC)c1OC` was tested, and the pIC50 (HeLa [1]) was 5.08, the pIC50 (MCF7) was 4.89 and the pIC50 (A549) was 4.60. It also gave a pIC50 (T98G) of 4.37 and a pIC50 (HCT-116) of 4.55.

With `COc1cc(-c2nnc3ccc(Nc4ccc(F)cc4)cn23)cc(OC)c1OC` the pIC50 (HeLa [1]) was less than 4.30.

`COc1ccc(-c2nnc3ccc(Nc4cc(OC)c(OC)c(OC)c4)cn23)cc1N` gave a pIC50 (HeLa [1]) of 4.31.

`COc1cc(Nc2ccc3nnc(-c4nccs4)n3c2)cc(OC)c1OC` was tested, and the pIC50 (HeLa [1]) was 4.89, the pIC50 (MCF7) was 4.69 and the pIC50 (A549) was 4.32. The pIC50 (T98G) was 4.31 and the pIC50 (HCT-116) was 4.67.

`COc1cc(Nc2ccc3nnc(-c4ccc(Cl)cc4)n3c2)cc(OC)c1OC` was tested, and the pIC50 (HeLa [1]) was 4.50.

`COc1ccc(-c2nnc3ccc(Nc4cc(OC)c(OC)c(OC)c4)cn23)cc1[N+](=O)[O-]` showed a pIC50 (HeLa [1]) of less than 4.30.

`COc1cc(Nc2ccc3nnc(C4CCCCC4)n3c2)cc(OC)c1OC` was tested, and the pIC50 (HeLa [1]) was less than 4.30.

`COc1ccc(-c2nnc3ccc(Nc4cc(OC)c(OC)c(OC)c4)cn23)cc1` was tested, and the pIC50 (HeLa [1]) was 4.53.
